Test results: paper PMC8224453, “A New PqsR Inverse Agonist Potentiates Tobramycin Efficacy to Eradicate Pseudomonas aeruginosa Biofilms” (Advanced Science, 2021)
Read-outs that look alike come from different tables or passages of the source.

Key:
PA14 wt biofilm = test: Minimum biofilm eradicating concentration (MBEC) assay; assay type: cell-based, Pseudomonas aeruginosa
From the text: page 21: wild type (PA14 wt) was purchased from DSMZ, the German Collection of Microorganism and Cell Cultures GmbH (PA14 = DSMZ19882) and cultured in minimal proteose peptone glucose ammonium salt (PPGAS) medium. […] KCl, 19 g/L Tris-HCl, 10 g/L peptone, 5 g/L glucose and 0.1 g/L MgSO4∙7H2O. The pH value […] Agar solution was […] resulting solution was sterilized before being plated. The minimum inhibitory concentration (IC) of drug-free SqNPs, compound 4 prepared either in dimethyl sulfoxide (DMSO) or loaded in SqNPs, free Tob, Tob-loaded SqNPs, and Tob and compound 4 co-loaded SqNPs against planktonic PA14 wt were determined by standard microbroth dilution assays in 96-well plates. PA14 wt suspension was prepared from mid-log cultures in PPGAS medium and […] PBS served as a control. […] The MBECs of free Tob, Tob-loaded SqNPs, free Tob plus free compound 4 prepared in DMSO, and Tob and compound (4) co-loaded SqNPs were determined by the MBEC assay as reported in previous study.[2,7] […] The biofilm-eradicating efficacy was assessed according to viable bacterial load determined using dilution in PBS/0.05% Tween20 and plating on agar S20 page 22: plates to count CFU after overnight incubation at […]. […] Using GraphPad Prism 8.4.2, the AUC was calculated for each condition. […] After a 24h treatment, efficacy was assessed by determination of colony-forming units per millilitre (CFU/mL). […]

[1] = system: alkylquinolones PQS and HHQ in P. aeruginosa PA14; test: Alkylquinolone inhibition assay in PA14; assay type: cell-based; details: Pseudomonas aeruginosa
Procedure: 4. Secondary Activity Assays
4.1. Alkylquinolone Inhibition Assay
The inhibitory effect of the synthesized compounds on alkylquinolone production in PA was measured as previously described with the modification that wt PA14 was used instead of PA14pqsH.[6] Briefly, P. aeruginosa PA14 cultures were grown in the presence of DMSO as a control or DMSO solutions of inhibitors for 17 h. HHQ and PQS as well as HQNO were quantified from ethyl acetate extracts using 5,6,7,8-tetradeutero-2-heptyl-4(1H)-quinolone (HHQ-d4) as internal standard (IS). LC-ESI-MS/MS analysis was performed on a Dionex […]
(1 picture or pasted object on this page, not shown here)
Scientific, Waltham MA) with the following conditions: Zorbax Eclipse XDB 80 Å C18 5 µm 4.6 x 50 mm column (Agilent, Santa Clara, CA, USA); eluent A – H2O with 0.1% trifluoroacetic acid (TFA), 0.1% pentafluoropropionic acid (PFPA), 0.1% heptafluorobutyric acid (HFBA); eluent B – acetonitrile with 0.1% TFA, 0.1% PFPA, 0.1% HFBA; isocratic 50% A; flow – 0.7 mL/min. TSQ Quantum Access Max (Thermo Fisher Scientific, Waltham, MA, USA) instrument parameters: Spray voltage 3500 V, vaporizer temperature 370 °C, sheath gas pressure 35 psi, aux gas pressure 30 psi, capillary temperature 270 °C, collision pressure 1.5 mTorr, positive ionization mode. For AQ analyte reaction monitoring parameters […]
Data acquisition and quantification was performed using Xcalibur software with the use of a calibration curve relative to the area of the IS. IC50 values were calculated according to the procedure of the pyocyanin assay (see above).
Table S1: LC-ESI-MS/MS reaction monitoring parameters of AQ analytes in positive ionization mode. precursor product collision tube lens retention ion m/z ion m/z energy (V) offset (V) time (min)
Chemical and biological materials for in vitro assays: All chemicals were purchased from Sigma-Aldrich unless otherwise specified. Yeast extract was obtained from Fluka. Bacto™ Tryptone were obtained from BD Biosciences. Luria Bertani (LB) agar was obtained from Carl Roth. Gibco® PBS was obtained from Life Te chnologies. Purified water was prepared by a Milli-Q water purification system (Merk Millipore, Billerica, MA). The PA strain PA14 wild type (PA14 wt) was purchased from DSMZ, the German Collection of Microorganism and Cell Cultures GmbH (PA14 = DSMZ19882) and cultured in minimal proteose peptone glucose ammonium salt (PPGAS) medium. PPGAS was composed of 1 g/L NH4Cl, 1.5 g/L KCl, 19 g/L Tris-HCl, 10 g/L peptone, 5 g/L glucose and 0.1 g/L MgSO4∙7H2O. The pH value of the medium was adjusted to 7.2 ± 0.2 and sterilized before use. Agar solution was […]

[2] = system: eDNA production in PA biofilm; test: Inhibition of eDNA production in biofilm; assay type: cell-based; details: Pseudomonas aeruginosa
[3] = Metabolic stability half-life (matrix not given); assay type: in vitro ADME; details: matrix not stated; read-out: metabolic stability half-life t 1/2
Procedure: First, we evaluated the most promising compounds considering in vitro pharmacokinetic properties such as solubility and metabolic stability. […] Compounds 4 and 19 were moderately stable with half‐lives of 10 and 19 min, respectively.

[4] = Cytotoxicity assay in HepG2; assay type: cell-based; details: human, HepG2 cells, read-out: Cytotoxicity, viable cells
Procedure: Hep G2 or HEK293 cells (2 × 10^5 cells per well) were seeded in 24-well, flat-bottomed plates. Culturing of cells, incubations, and OD measurements were performed as described previously with slight modifications.[8] Twenty-four hours after seeding the cells, the incubation was started by the addition of test compound in a final DMSO concentration of
1%. […] At least two independent measurements were performed for each compound.

Question: Which “MBEC (Tob concentration for complete biofilm eradication)” value (PA14 wt biofilm; PA14 wt biofilm, 24 h treatment, 4 constant at 20 × 10^−6 M where used) does the source give for `NC[C@H]1O[C@H](O[C@H]2[C@H](O)[C@@H](O[C@H]3O[C@H](CO)[C@@H](O)[C@H](N)[C@H]3O)[C@H](N)C[C@@H]2N)[C@H](N)C[C@@H]1O` [Tobramycin, tobramycin] here?
Answer: Its value is “higher than 200 µg mL^−1”.

Question: What does the source list for `COc1ccc(-n2cc(CNc3ccnc(C(F)(F)F)c3)nn2)cc1Cl` [Compound 17]?
Answer: IC50 ([1]; PA14, read-out: IC50(HHQ)): 1.32 ± 0.39 µM; IC50 ([1]; PA14, read-out: IC50(PQS)): 2.08 ± 0.37 µM; IC50 [2]: 1.6 ± 1.1 µM; half-life [3]: 3 min; viability at 48 h, 75 × 10^−6 M ([4]; HepG2, @75 × 10^−6 M): 68%

Question: With `FC(F)(F)c1cc(NCc2cn(-c3ccc(Oc4ccccc4)cc3)nn2)ccn1` [Compound 4] as the compound, how does the IC50 ([1]; PA14, read-out: IC50(HHQ)) read?
Answer: The IC50 was 0.37 ± 0.07 µM.

Question: What about the IC50 ([1]; PA14, read-out: IC50(PQS)) of the same compound?
Answer: Its IC50 is 1.13 µM.

Question: And the IC50 [2]?
Answer: The IC50 was 0.22 ± 0.05 µM.

Question: What about the half-life [3] of the same compound?
Answer: Its half-life is 10 min.

Question: And the viability at 48 h, 25 × 10^−6 M ([4]; HepG2, @25 × 10^−6 M)?
Answer: The viability at 48 h, 25 × 10^−6 M was 55%.

Question: And the “PA14 wt biofilm inhibitory effect” value (PA14 wt biofilm; controls of the MBEC assay, compound 4 at 20 μM)?
Answer: The value was “did not show any PA14 wt biofilm inhibitory effects”.
